Source: US20240141356A1, “Driving Axon Regeneration by Activating STAT1 Signaling and cGAS-STING Pathway” (The Hong Kong University of Science and Technology, priority 2022, published 2024)

Experiments:
[1] = tested on: retinal ganglion cells (RGCs); assay: Optic nerve crush, number of regenerating axons (CTB labeling); assay type: in vivo, mouse
embryonic DRG neurons = assay: Embryonic DRG culture in compartmented chamber, in-vitro axotomy; assay type: cell-based, mouse; settings: ADU-S100 10 μM added to the axonal or the soma compartment
Protocol: To culture embryonic DRG in the compartmented chamber, embryonic DRGs were dissected from E13.5 pregnant C57BL/6 mouse embryos in Leibovitz's L-15 medium on ice. Tissues were dissociated in TrypLE for 15 minutes at 37° C. Dissociated neurons were plated in the microfluidic chamber on cleaned glass coverslips pre-coated with poly-D-lysine and laminin in the density of 100000 cells per chamber with 5 μL culture medium supplemented with GlutaMAX (2 mM), B27 (20 ml/l), penicillin-Streptomycin, NGF ([…]) and 5-fluoro-2′-deoxyuridine (10 μM) into the somal compartment. After one hour, 200 μL medium was added into both the somal and axonal compartment. To perform in-vitro axotomy, axons in the axonal chamber were removed by a glass pipette connected to an aspirator. Then, a 150 μL medium was quickly added into the empty compartment. After 2 days in the […], cells were fixed by 4% PFA and then stained by Tuj 1 antibody. The lengths and/or number of longest axons in each chamber were quantified by ImageJ.

p-STAT1 = p-STAT1 in RGCs/retina after optic nerve injury (immunostaining, western blot); assay type: in vivo, mouse; settings: for p-STAT1 accumulation in the nuclei of RGCs: WT, IFNγ administration
p-STAT3 = p-STAT3 in RGCs after optic nerve injury (immunostaining); assay type: in vivo, mouse; settings: Ptpn2 KO group with IFNγ, 1 dpc
cGAS = cGAS expression in retina/RGCs after optic nerve injury (western blot, immunostaining); assay type: in vivo, mouse
[2] = tested on: retinal ganglion cells (RGCs); settings: 2 WPI
DRG neurons = assay: Adult DRG neuron primary culture, length of the longest axon (compound test); assay type: cell-based, mouse; settings: cGAMP 10 μM; for effect on the growth effect induced by cGAMP: DRG culture, DCPIB 100 nM, CBX 10 μM; for axon elongation / axon growth in DRG culture: WT DRG neurons, DMXAA 10 μM, C-176 1 μM, H-151 1 μM
Protocol: (§1) In some embodiments, in-vitro screening models of axon regeneration are based on DRG electroporation and replating culture. Adult DRGs were cultured and replated according to the protocol described previously (Weng et al., 2018). In certain embodiments, adult mice were euthanized, and L4-L6 DRGs were dissected from both sides. DRGs were dissociated in 0.5% collagenase for 1.5 hours. Then the medium containing collagenase was replaced by Neurobasal A, and DRGs were gently pipetted 20 times for dissociation. For electroporation, dissociated DRG neurons were transfected by Mouse Neuron Nucleofector Kit in Lonza Nucleofector system using program G103. 6 DRGs and 5 μg plasmid were used for each reaction. Neurobasal-A with 10% B27 supplement was used as the culture medium for DRG neurons.
(§2) For quantification of neurite lengths in DRG culture. Cells were fixed and stained with TurboGFP (phosphatase shRNA library screening) or Tuj 1. The lengths of the longest axons in each DRG neuron were quantified by the NeuronJ plugin in ImageJ. For phosphatase screening, 5-10 neurons were quantified for each shRNA. For the compound test, 10-20 cells from each mouse and 3 mice were quantified in each group.

IFNγ = assay: Ex-vivo model of sciatic nerve injury, IFNγ immunostaining; design: species or system mouse; settings: injured sciatic nerve segments in DMEM, anisomycin 200 μg/ml, 3-hour incubation
Protocol: For the ex-vivo model of sciatic nerve injury, the nerves were crushed and then cut into about 3 mm to about 5 mm segments. The injured nerve segments were incubated in DMEM supplemented with about 10% FBS and about 1% penicillin/streptomycin. Translation was inhibited by 200 μg/ml anisomycin. After about a 3-hour incubation, nerve segments were fixed by 4% PFA for about 2 hours and then proceeded to the frozen section.
Mice were first perfused by PBS and then 4% PFA for 5 minutes for fixation. Respective tissues were dissected and then post-fixed in 4% PFA for two hours. Fixed tissues were incubated in 30% sucrose overnight and then embedded in an optimum cutting temperature (OCT) compound. Frozen sections were then permeabilized with 0.1% Triton X-100, blocked by 4% normal goat serum for 30 min, and incubated by respective primary antibodies overnight. After PBS washing three times, sections were incubated by secondary antibodies for two hours and washed three times again. Images were taken by Leica SP8 confocal microscope.

adult DRG neurons = assay: DRG replating assay, phosphatase inhibitor screening; assay type: cell-based, mouse; settings: replated adult DRG neurons, inhibitors 100 nM
Protocol: as §1
The culture was replated three days after electroporation. The DRG neurons in the primary culture were gently flushed by 20-30 pipetting to be resuspended in the culture medium. […] The lengths of the longest axons in each DRG neuron were quantified by the NeuronJ plugin in ImageJ. […]
as §2, with “Cells were fixed and stained with TurboGFP (phosphatase shRNA library screening) or Tuj 1.” left out

[3] = Ptpn2 cKO plus IFNγ after optic nerve injury

Nc1ncnc2c1ncn2[C@@H]1O[C@@H]2COP(=O)([S-])O[C@@H]3[C@H](O)[C@@H](COP([O-])(=S)O[C@H]2[C@H]1O)O[C@H]3n1cnc2c(N)ncnc21.[Na+].[Na+] (stereo partly shown) [ADU-S100, reference compound]
axon regeneration after optic nerve crush ([1]; mouse, in vivo): regenerative effect in a dose-dependent manner
axon elongation after in-vitro axotomy (embryonic DRG neurons): enhanced axon elongation

IFNγ: type II interferon, recombinant protein (Prospec)
optic nerve regeneration by IFNγ stimulation ([1]; Cgas or Sting KO mice with AAV-shRNA-Ptpn2, 0.1 μg/μL IFNγ, 2 weeks after injury): almost completely blocked
axons found at the optic chiasm, vs Pten/Socs3 mutant plus vehicle ([1]; Pten/Socs3/Ptpn2 triple KO with AAV-CNTF, IFNγ at time of injury, four weeks): about 3 fold
axon regeneration, exogenous ligand screen ([1]; Ptpn2 KO mice, protein injected into the eye at time of optic nerve crush, two weeks, IFNγ 0.1 μg/μL, leptin 2, insulin 2, EGF 1, bNGF 1 μg/μL): significantly boosted axon regeneration
axon regeneration, IFNγ plus Ptpn2 KO ([1]; Ptpn2 cKO mice, intravitreal IFNγ immediately after optic nerve injury (repeat with more controls)): elicited robust regeneration
axon regrowth, IFNγ alone ([1]; WT mice, intravitreal IFNγ immediately after optic nerve injury): induced modest regrowth
axon regeneration, triple KO plus IFNγ vs Pten/Socs3 mutant plus vehicle ([1]; mouse, in vivo): very significant increase in axon regeneration
p-STAT1 in RGCs (p-STAT1; Ptpn2 KO group with IFNγ): enhanced up to 5 dpc
p-STAT1 in retina lysates by western blotting (p-STAT1; [3]): most elevated among all groups
p-STAT1 accumulation in the nuclei of RGCs (p-STAT1; 1 dpc): induced p-STAT1 accumulation
p-STAT1 accumulation in the nuclei of RGCs (p-STAT1; 3 dpc): not at 3 dpc
phosphorylated STAT3 (p-STAT3) in RGCs (p-STAT3): also activated
cGAS in RGCs by immunostaining (cGAS; Ptpn2 cKO in addition to IFNγ, 2 days after injury): upregulated
cGAS in retina by western blotting (cGAS; [3]): detectable only in mouse retinas with Ptpn2 cKO plus IFNγ
RGC survival rates ([2]; WT or Ptpn2 cKO with PBS or IFNγ): comparable among the four groups
RGC survival ([2]; WT, Cgas, Sting or Mavs KO mice with AAV-shRNA-Ptpn2 and IFNγ): comparable among all groups

CC1(C)[C@@H](OC(=O)CCC(=O)O)CC[C@]2(C)[C@H]3C(=O)C=C4[C@@H]5C[C@@](C)(C(=O)O)CC[C@]5(C)CC[C@@]4(C)[C@]3(C)CC[C@@H]12 [CBX]
effect on the growth effect induced by cGAMP (DRG neurons): inhibit the growth effect induced by cGAMP

COc1ccc(C[C@H]2NC[C@H](O)[C@H]2OC(C)=O)cc1 [anisomycin]
reduction of the IFNγ signal (IFNγ): over 50%

Nc1nc2c(ncn2[C@@H]2O[C@@H]3COP(=O)(O)O[C@H]4[C@@H](O)[C@H](n5cnc6c(N)ncnc65)O[C@@H]4COP(=O)(O)O[C@@H]2[C@@H]3O)c(=O)[nH]1 [2′,3′-cGAMP, reference compound]
axon regeneration after optic nerve crush ([1]; mouse, in vivo): stimulated significant axon regeneration
cGAMP-induced regeneration ([1]; mouse, in vivo): suppressed
cGAMP-stimulated axon regeneration ([1]; mouse, in vivo): almost completely blocked
growth effect of cGAMP on DRG culture (DRG neurons; Sting deletion (Sting KO mice)): completely abolished
axon elongation / axon growth in DRG culture (DRG neurons): enhanced the axon elongation

Cc1ccc2c(=O)c3cccc(CC(=O)O)c3oc2c1C [DMXAA, 5,6-Dimethylxanthenone-4-acetic acid]
axon elongation / axon growth in DRG culture (DRG neurons): enhanced the axon elongation

CCCCC1(C2CCCC2)Cc2cc(OCCCC(=O)O)c(Cl)c(Cl)c2C1=O (stereo not shown) [DCPIB]
effect on the growth effect induced by cGAMP (DRG neurons): inhibit the growth effect induced by cGAMP

CCc1ccc(C(=O)NCCCCC(NC(=O)C(Cc2ccc(C(F)(F)P(=O)(O)O)cc2)NC(=O)C(Cc2ccccc2)NC(=O)COC2CC(C)CCC2C(C)C)C(N)=O)cc1 (stereo not shown) [PTPN2 inhibitor, reference compound]
in-vitro screening on inhibitors of mouse phosphatases (axon elongation) (adult DRG neurons): identified from the tyrosine phosphatase inhibitor screening
axon regeneration after optic nerve crush ([1]; mouse, in vivo): elicited modest axon regeneration
